Reference: PMC10507085, “Pharmacological inhibition of TBK1/IKKε blunts immunopathology in a murine model of SARS-CoV-2 infection” (Nature Communications, 2023)

Columns and labels:
Assay in all cases: biochemical
Set-up in all cases: KINOMEscan competition binding, DNA-tagged kinase against immobilised ligand, qPCR read-out
Settings in all cases: read-out: Percent Control
[1] = target: AKT1 (Homo sapiens, UniProt P31749)
[2] = target: CLK1 (Homo sapiens, UniProt P49759)
[3] = target: CLK3 (Homo sapiens, UniProt P49761)
[4] = target: DCLK2 (Homo sapiens, UniProt Q8N568)
[5] = target: DSTYK (Homo sapiens, UniProt Q6XUX3)
[6] = target: GRK7 (Homo sapiens, UniProt Q8WTQ7)
[7] = target: IRAK4 (Homo sapiens, UniProt Q9NWZ3)
[8] = target: T1, JAK1(JH2domain-pseudokinase) (Homo sapiens, UniProt P23458)
T1 construct: JH2 domain pseudokinase

[9] = target: T2, KIAA0999 (Homo sapiens, UniProt Q9Y2K2)
T2 construct: gene SIK3
T2 sequence (Q9Y2K2 whole entry): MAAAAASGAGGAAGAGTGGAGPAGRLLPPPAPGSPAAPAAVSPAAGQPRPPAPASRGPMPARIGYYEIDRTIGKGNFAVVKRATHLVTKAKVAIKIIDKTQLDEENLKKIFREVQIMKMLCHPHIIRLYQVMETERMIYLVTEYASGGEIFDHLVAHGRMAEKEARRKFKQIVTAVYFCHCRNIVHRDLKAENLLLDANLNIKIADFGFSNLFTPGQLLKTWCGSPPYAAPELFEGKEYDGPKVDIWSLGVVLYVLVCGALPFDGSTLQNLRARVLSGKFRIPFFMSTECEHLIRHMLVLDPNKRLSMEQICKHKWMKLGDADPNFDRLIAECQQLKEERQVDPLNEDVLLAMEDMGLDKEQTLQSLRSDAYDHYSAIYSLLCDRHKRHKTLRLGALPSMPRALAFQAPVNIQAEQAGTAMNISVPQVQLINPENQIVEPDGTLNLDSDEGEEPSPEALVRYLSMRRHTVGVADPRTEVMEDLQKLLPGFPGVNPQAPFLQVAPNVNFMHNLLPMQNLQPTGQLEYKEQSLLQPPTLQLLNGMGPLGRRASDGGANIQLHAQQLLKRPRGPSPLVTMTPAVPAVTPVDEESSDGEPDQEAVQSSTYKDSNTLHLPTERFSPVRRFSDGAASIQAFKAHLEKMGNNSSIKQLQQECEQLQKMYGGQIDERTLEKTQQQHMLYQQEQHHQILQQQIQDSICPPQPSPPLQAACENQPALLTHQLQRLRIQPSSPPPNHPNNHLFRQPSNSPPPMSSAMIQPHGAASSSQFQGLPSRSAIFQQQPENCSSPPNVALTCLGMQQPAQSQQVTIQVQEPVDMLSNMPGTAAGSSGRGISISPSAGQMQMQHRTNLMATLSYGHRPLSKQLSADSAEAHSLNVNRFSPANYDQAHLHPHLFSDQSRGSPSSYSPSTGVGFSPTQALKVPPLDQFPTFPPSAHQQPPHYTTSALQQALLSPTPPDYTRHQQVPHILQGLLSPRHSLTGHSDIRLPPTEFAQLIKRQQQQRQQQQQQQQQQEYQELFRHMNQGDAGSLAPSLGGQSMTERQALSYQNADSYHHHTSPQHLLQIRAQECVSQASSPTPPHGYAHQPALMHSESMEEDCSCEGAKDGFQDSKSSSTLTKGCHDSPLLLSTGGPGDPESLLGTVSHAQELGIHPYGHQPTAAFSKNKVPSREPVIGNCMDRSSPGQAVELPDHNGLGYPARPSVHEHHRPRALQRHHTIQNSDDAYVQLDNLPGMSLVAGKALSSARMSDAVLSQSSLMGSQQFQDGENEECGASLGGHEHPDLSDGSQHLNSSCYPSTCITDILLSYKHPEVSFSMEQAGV

[10] = target: MAP2K2 (Homo sapiens, UniProt P36507)
[11] = target: MAP2K4 (Homo sapiens, UniProt P45985)
Sequence of MAP2K4 (P45985 whole entry): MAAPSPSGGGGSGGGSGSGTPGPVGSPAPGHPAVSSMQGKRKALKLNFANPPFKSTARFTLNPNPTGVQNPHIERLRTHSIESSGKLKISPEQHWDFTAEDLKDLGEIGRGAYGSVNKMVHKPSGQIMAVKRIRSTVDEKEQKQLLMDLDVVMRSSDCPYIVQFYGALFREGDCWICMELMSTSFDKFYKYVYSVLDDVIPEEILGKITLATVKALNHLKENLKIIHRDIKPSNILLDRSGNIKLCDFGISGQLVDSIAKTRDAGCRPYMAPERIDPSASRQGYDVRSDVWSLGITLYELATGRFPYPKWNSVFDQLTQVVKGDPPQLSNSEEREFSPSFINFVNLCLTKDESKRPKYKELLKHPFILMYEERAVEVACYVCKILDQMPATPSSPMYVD

[12] = target: MYO3B (Homo sapiens, UniProt Q8WXR4)
[13] = target: PHKG2 (Homo sapiens, UniProt P15735)
[14] = target: PTK2B (Homo sapiens, UniProt Q14289)
[15] = target: RIOK2 (Homo sapiens, UniProt Q9BVS4)
Sequence of RIOK2 (Q9BVS4 whole entry): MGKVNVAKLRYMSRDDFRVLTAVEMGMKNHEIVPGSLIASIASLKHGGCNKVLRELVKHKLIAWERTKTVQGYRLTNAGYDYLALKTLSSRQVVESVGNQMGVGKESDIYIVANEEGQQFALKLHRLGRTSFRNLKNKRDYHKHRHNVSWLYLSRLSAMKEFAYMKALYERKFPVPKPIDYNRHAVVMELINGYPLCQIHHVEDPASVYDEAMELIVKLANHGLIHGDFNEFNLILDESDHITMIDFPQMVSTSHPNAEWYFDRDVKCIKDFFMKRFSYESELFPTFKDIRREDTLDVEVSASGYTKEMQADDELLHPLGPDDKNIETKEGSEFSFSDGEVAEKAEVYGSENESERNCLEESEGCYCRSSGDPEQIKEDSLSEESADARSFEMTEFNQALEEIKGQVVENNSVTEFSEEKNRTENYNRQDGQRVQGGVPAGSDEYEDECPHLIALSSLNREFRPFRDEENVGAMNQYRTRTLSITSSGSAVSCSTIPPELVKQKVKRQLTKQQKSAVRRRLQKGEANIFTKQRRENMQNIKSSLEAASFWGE

[16] = target: T3, RPS6KA4(Kin.Dom.1-N-terminal) (Homo sapiens, UniProt O75676)
T3 construct: Kin.Dom.1 N-terminal

[17] = target: SNRK (Homo sapiens, UniProt Q9NRH2)
[18] = target: WEE2 (Homo sapiens, UniProt P0C1S8)
Sequence of WEE2 (P0C1S8 whole entry): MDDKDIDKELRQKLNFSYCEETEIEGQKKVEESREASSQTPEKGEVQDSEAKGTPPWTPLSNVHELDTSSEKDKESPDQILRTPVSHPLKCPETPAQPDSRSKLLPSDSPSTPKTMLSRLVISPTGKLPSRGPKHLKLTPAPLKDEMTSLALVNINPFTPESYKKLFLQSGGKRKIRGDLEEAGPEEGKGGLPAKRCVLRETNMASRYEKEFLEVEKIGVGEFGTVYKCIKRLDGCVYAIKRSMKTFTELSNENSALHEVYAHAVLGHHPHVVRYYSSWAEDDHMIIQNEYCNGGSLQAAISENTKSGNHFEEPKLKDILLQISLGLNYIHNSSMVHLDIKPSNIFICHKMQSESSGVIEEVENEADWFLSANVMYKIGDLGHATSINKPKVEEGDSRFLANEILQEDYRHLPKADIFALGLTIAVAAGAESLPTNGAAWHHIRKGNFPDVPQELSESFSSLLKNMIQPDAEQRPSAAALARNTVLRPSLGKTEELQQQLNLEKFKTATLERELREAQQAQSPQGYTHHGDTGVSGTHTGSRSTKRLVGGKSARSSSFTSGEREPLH

[19] = target: WNK3 (Homo sapiens, UniProt Q9BYP7)
[20] = target: WNK4 (Homo sapiens, UniProt Q96J92)
Sequence of WNK4 (Q96J92 whole entry): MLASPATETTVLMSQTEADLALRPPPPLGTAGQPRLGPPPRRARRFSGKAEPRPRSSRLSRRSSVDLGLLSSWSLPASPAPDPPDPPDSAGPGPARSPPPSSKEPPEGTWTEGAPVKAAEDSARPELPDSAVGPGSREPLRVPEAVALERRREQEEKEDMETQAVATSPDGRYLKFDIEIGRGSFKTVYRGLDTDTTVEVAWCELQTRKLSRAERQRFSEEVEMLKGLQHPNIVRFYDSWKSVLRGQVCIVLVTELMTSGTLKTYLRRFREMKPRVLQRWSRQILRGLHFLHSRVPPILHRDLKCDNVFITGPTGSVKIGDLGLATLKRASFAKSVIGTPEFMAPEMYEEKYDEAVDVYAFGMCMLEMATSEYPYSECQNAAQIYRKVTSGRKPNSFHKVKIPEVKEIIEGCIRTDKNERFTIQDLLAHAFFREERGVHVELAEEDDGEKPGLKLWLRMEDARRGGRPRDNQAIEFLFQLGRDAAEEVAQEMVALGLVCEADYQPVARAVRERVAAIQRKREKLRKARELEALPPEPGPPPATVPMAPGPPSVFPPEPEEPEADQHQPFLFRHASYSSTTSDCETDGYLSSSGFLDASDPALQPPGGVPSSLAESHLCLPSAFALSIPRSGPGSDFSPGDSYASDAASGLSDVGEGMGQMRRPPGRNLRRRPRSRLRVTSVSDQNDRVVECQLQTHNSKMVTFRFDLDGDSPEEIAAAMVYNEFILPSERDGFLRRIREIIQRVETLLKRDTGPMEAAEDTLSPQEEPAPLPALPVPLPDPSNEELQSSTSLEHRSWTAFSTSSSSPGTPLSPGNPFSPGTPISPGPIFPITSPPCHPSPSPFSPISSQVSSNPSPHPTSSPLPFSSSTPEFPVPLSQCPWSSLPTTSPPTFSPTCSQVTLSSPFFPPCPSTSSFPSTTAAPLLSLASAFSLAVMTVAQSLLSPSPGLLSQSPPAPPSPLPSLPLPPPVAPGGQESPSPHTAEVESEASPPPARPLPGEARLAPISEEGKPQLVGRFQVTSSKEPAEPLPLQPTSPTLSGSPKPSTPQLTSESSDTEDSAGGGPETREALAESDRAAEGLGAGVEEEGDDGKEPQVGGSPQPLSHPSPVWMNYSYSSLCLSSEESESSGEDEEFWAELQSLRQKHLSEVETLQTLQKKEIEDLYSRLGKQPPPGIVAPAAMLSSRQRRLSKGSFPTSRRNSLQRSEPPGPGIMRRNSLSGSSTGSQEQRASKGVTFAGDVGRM

Sequence of AKT1 (P31749 whole entry): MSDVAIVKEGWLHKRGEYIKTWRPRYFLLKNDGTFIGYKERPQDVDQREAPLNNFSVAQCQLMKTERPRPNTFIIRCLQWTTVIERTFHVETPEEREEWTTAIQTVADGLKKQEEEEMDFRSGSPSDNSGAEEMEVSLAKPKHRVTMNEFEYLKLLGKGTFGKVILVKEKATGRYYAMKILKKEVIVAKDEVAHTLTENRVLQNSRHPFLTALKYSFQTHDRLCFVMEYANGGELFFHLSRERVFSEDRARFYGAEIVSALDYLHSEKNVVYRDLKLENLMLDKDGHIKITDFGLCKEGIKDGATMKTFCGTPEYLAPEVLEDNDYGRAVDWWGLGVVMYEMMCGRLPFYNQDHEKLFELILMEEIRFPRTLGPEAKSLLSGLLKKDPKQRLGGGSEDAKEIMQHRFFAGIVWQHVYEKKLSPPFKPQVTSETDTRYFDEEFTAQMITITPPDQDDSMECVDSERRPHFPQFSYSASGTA
Sequence of CLK1 (P49759 whole entry): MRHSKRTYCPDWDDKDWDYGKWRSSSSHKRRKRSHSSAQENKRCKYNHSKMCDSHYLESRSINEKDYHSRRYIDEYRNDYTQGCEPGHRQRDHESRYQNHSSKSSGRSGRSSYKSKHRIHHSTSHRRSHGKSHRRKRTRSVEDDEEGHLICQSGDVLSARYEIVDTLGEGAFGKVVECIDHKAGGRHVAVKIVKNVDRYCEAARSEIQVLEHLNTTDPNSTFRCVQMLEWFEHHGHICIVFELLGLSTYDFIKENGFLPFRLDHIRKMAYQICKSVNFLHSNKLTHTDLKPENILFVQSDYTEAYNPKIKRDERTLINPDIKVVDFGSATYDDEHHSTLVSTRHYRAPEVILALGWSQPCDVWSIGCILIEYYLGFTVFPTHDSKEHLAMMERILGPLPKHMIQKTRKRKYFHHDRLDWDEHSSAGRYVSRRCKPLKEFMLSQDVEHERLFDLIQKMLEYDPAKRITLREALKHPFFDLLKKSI

## Oc1ccc(C2=Cc3ccc(O)cc3OC2)cc1 [compound 1, idronoxil]
[1]
  remaining binding at 10 µM: 75%
[2]
  remaining binding at 10 µM: 53%
[3]
  remaining binding at 10 µM: 70%
[4]
  remaining binding at 10 µM: 73%
[5]
  remaining binding at 10 µM: 74%
[6]
  remaining binding at 10 µM: 100%
[7]
  remaining binding at 10 µM: 79%
[8]
  remaining binding at 10 µM: 90%
[9]
  remaining binding at 10 µM: 89%
[10]
  remaining binding at 10 µM: 79%
[11]
  remaining binding at 10 µM: 91%
[12]
  remaining binding at 10 µM: 100%
[13]
  remaining binding at 10 µM: 46%
[14]
  remaining binding at 10 µM: 99%
[15]
  remaining binding at 10 µM: 82%
[16]
  remaining binding at 10 µM: 83%
[17]
  remaining binding at 10 µM: 81%
[18]
  remaining binding at 10 µM: 95%
[19]
  remaining binding at 10 µM: 80%
[20]
  remaining binding at 10 µM: 95%
